In patent publication US20250129095A1, “ANNULATED 2-AMINO-3-CYANO THIOPHENES AND DERIVATIVES FOR THE TREATMENT OF CANCER” (Boehringer Ingelheim Int'l GmbH Corp., priority 2021, published 2025):

How the values were obtained:
KRAS G12D Ba/F3 = KRAS G12D Ba/F3 (Homo sapiens, UniProt P01116, G12D, cells depend on it); assay: Ba/F3 proliferation assay, KRAS G12D; format: cell-based; conditions: 72 h, AlamarBlue, read-out: KRAS G12D Ba/F3 IC50
Description: (§1) Plasmids containing KRASG12 mutants(i.e. G12D, G12C, G12V) are obtained from GeneScript. To generate KRASG12-dependent Ba/F3 models, Ba/F3 cells are transduced with retroviruses containing vectors that harbor KRASG12 isoforms. Platinum-E cells (Cell Biolabs) are used for retrovirus packaging. Retrovirus is added to Ba/F3 cells. To ensure infection, 4 μg/mL polybrene is added and cells are spinfected. […] Cells with an infection efficiency of 10% to 20% are further cultivated and puromycin selection with 1 μg/mL is initiated. As a control, parental Ba/F3 cells are used to show selection status. Selection is considered successful when parental Ba/F3 cells cultures died. To evaluate the transforming potential of KRASG12 mutations, the growth medium is no longer supplemented with IL-3. Ba/F3 cells harboring the empty vector are used as a control. Approximately ten days before conducting the experiments, puromycin is left out.
(§2) Compounds are added using an Access Labcyte Workstation with a Labcyte Echo 550 or 555 accoustic dispenser. All treatments are performed in technical duplicates. […] AlamarBlue™ (ThermoFisher), a viability stain, is added and fluorescence measured in the PerkinElmer Envision HTS Multilabel Reader. The raw data are imported into and analyzed with the Boehringer Ingelheim proprietary software MegaLab (curve fitting based on the program PRISM, GraphPad Inc.).

SAS cells = assay: SAS CTG proliferation assay (120 h) (HNSCC, wt amplified); format: cell-based
Description: (§3) SAS cells (JCRB0260) are dispensed into 384-well plates, flat and clear bottom (Greiner, PNr. 781091) at a density of 300 cells per well in 60 μL DMEM:F12 (Gibco 31330-038)+10% Fetal Calf Serum (HyClone, PNr.: SH30084.03) and incubated at 37° C. in a CO2 incubator overnight The next day, compounds (10 mM stock in DMSO) are added with the ECHO acoustic liquid handler system (Beckman Coulter), including DMSO controls. Plates are incubated for 120 h, and cell viability is measured using CellTiter-Glo luminescent cell viability reagent (Promega product code G7570). Viability (stated as percent of control) is defined as relative luminescence units RLU of each well divided by the RLU of cells in DMSO controls.

KRAS G12V Ba/F3 = KRAS G12V Ba/F3 (Homo sapiens, UniProt P01116, G12V, cells depend on it); assay: Ba/F3 proliferation assay, KRAS G12V; format: cell-based; conditions: 72 h, AlamarBlue, read-out: KRAS G12V Ba/F3 IC50
Chain of KRAS G12V Ba/F3 (P01116 whole entry G12V): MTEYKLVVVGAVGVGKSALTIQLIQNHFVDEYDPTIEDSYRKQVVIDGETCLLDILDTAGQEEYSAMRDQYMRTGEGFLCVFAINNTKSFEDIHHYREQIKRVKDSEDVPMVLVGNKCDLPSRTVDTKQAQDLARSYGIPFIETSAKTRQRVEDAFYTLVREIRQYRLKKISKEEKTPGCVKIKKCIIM
Description: as §1, §2

SK-CO-1 cells = assay: SK-CO-1 CTG proliferation assay (120 h) (CRC, G12V); format: cell-based; conditions: Homo sapiens
Description: as §3, with “SK-CO-1 cells (ATCC” for “SAS cells (JCRB0260)”, “SK-CO-1 cells (ATCC HTB-39) are dispensed” for “SAS cells (JCRB0260) are dispensed”, “density of 500 cells per” for “density of 300 cells per”, “60 μL EMEM (Sigma M5650)+10% Fetal Calf” for “60 μL DMEM:F12 (Gibco 31330-038)+10% Fetal Calf”, “CO2 incubator overnight. The next” for “CO2 incubator overnight The next”

AsPC-1 cells = assay: AsPC-1 CTG proliferation assay (120 h) (pancreatic cancer, G12D); format: cell-based; conditions: Homo sapiens, ASPC1
Description: The CTG assay is designed to measure quantitatively the proliferation of AsPC-1 cells (ATCC CRL-5985), using the CellTiter Glow Assay Kit (Promega G7571). Cells are grown in RPMI medium (ATCC) supplemented with Fetal Calf Serum (Life Technologies, Gibco BRL, Cat. No. 10270-106). On “day 0” 2000 AsPC-1 cells are seeded in 60 μL RPMI ATCC+10% FCS+ Penstrep in a 384-well plate, flat and clear bottom (Greiner, PNr. 781091). Cells are then incubated in the plates at 37° C. in a CO2 incubator overnight. On day 1, compounds (10 mM stock in DMSO) are added with the ECHO acoustic liquid handler system (Beckman Coulter), including DMSO controls. Plates are incubated for 120 h, and cell viability is measured using CellTiter-Glo luminescent cell viability reagent (Promega product code G7570). Viability (stated as percent of control) is defined as relative luminescence units RLU of each well divided by the RLU of cells in DMSO controls.

[1] = Plasma protein binding assay (PPB), equilibrium dialysis; format: in vitro ADME; conditions: bovine, 10% FCS in PBS, read-out: PPB 10% FCS (% fu)
Description: Binding of test compounds to plasma was determined using equilibrium dialysis (ED) and quantitative mass spectrometry interfaced with liquid chromatography (LC-MS). In brief, ED was performed with dialysis devices consisting of two chambers separated by a semipermeable membrane with a molecular weight cut-off of 5-10 kg/mol. One chamber was filled with 10% FCS in PBS containing 1-10 μmol/L test compound and the other chamber was filled with phosphate-buffer saline (PBS) with or without dextran. The dialysis chamber was incubated for 3-5 hours at 37° C. After incubation, protein was precipitated from aliquots of each chamber and the concentration of test compound in the supernatant of the plasma-containing compartment (cserum) and of the buffer-containing compartment (cbuffer) was determined by LC-MS. The fraction of unbound test compound (not bound to plasma) (fu) was calculated according to the following equation: […]

Chain of KRAS G12D Ba/F3 (P01116 whole entry G12D, canonical isoform): as the sequence (P01116 whole entry G12V) above, with V12D counted along it

SMILES: C[C@H](Oc1cc(O[C@H]2CN(C)C(C)(C)C2)nc(-c2noc3c2CCC[C@@]32CCCc3sc(N)c(C#N)c32)n1)[C@@H]1CCCN1C [II-19]
- GI50 (KRAS G12D Ba/F3): 91 nM
- IC50 (SAS cells): 297 nM
- GI50 (KRAS G12V Ba/F3): 151 nM
- IC50 (SK-CO-1 cells): 933 nM
- IC50 (AsPC-1 cells): 1420 nM
- fraction unbound [1]: 0.12

SMILES: C[C@H](Oc1cc(Oc2cnccn2)nc(-c2noc3c2CCC[C@@]32CCCc3sc(N)c(C#N)c32)n1)[C@@H]1CCCN1C [II-7]
- GI50 (KRAS G12D Ba/F3): 10 nM
- IC50 (SAS cells): 1390 nM
- GI50 (KRAS G12V Ba/F3): 3 nM
- IC50 (SK-CO-1 cells): 21 nM
- IC50 (AsPC-1 cells): 3000 nM
- fraction unbound [1]: 0.28

SMILES: C[C@H]1CN(C)CCCN1c1cc(O[C@@H]2CNC2(C)C)nc(-c2noc3c2CCC[C@@]32CCCc3sc(N)c(C#N)c32)n1 [II-28]
- GI50 (KRAS G12D Ba/F3): 130 nM
- IC50 (SAS cells): 4450 nM
- GI50 (KRAS G12V Ba/F3): 2040 nM
- IC50 (SK-CO-1 cells): 2590 nM
- IC50 (AsPC-1 cells): 443 nM
- fraction unbound [1]: 0.59

SMILES: C[C@H](Oc1cc(Oc2nccs2)nc(-c2noc3c2CCC[C@@]32CCCc3sc(N)c(C#N)c32)n1)[C@@H]1CCCN1C [II-2]
- GI50 (KRAS G12D Ba/F3): 20 nM
- IC50 (SAS cells): 44 nM
- GI50 (KRAS G12V Ba/F3): 4 nM
- IC50 (SK-CO-1 cells): 26 nM
- IC50 (AsPC-1 cells): 1840 nM
- fraction unbound [1]: 0.07

SMILES: C[C@H](Oc1cc(O[C@H]2CCOC2)nc(-c2noc3c2CCC[C@@]32CCCc3sc(N)c(C#N)c32)n1)[C@@H]1CCCN1C [II-4]
- GI50 (KRAS G12D Ba/F3): 31 nM
- IC50 (SAS cells): 44 nM
- GI50 (KRAS G12V Ba/F3): 6 nM
- IC50 (SK-CO-1 cells): 28 nM
- IC50 (AsPC-1 cells): 2750 nM
- fraction unbound [1]: 0.54

SMILES: C[C@H](Oc1cc(O[C@@H]2CNC[C@@H]2F)nc(-c2noc3c2CCC[C@@]32CCCc3sc(N)c(C#N)c32)n1)[C@@H]1CCCN1C [II-29]
- GI50 (KRAS G12D Ba/F3): 22 nM
- IC50 (SAS cells): 1050 nM
- GI50 (KRAS G12V Ba/F3): 65 nM
- IC50 (SK-CO-1 cells): 139 nM
- IC50 (AsPC-1 cells): 430 nM
- fraction unbound [1]: 0.52

SMILES: C[C@H](Oc1cc(Nc2nccs2)nc(-c2noc3c2CCC[C@@]32CCCc3sc(N)c(C#N)c32)n1)[C@@H]1CCCN1C [II-12]
- GI50 (KRAS G12D Ba/F3): 65 nM
- IC50 (SAS cells): 594 nM
- GI50 (KRAS G12V Ba/F3): 11 nM
- IC50 (SK-CO-1 cells): 308 nM
- IC50 (AsPC-1 cells): 2920 nM
- fraction unbound [1]: 0.07

SMILES: COCCOc1cc(O[C@@H](C)[C@@H]2CCCN2C)nc(-c2noc3c2CCC[C@@]32CCCc3sc(N)c(C#N)c32)n1 [II-5]
- GI50 (KRAS G12D Ba/F3): 38 nM
- IC50 (SAS cells): 67 nM
- GI50 (KRAS G12V Ba/F3): 7 nM
- IC50 (SK-CO-1 cells): 23 nM
- IC50 (AsPC-1 cells): 2550 nM
- fraction unbound [1]: 0.5

SMILES: C[C@H](Oc1cc(N[C@H]2CCOC2)nc(-c2onc3c2CCC[C@@]32CCCc3sc(N)c(C#N)c32)n1)[C@@H]1CCCN1C [Example I-4]
- GI50 (KRAS G12D Ba/F3): 41 nM
- IC50 (SAS cells): 719 nM
- GI50 (KRAS G12V Ba/F3): 46 nM
- IC50 (SK-CO-1 cells): 762 nM
- IC50 (AsPC-1 cells): 9470 nM
- fraction unbound [1]: 0.6

SMILES: C[C@H](Oc1cc(Nc2ncco2)nc(-c2noc3c2CCC[C@@]32CCCc3sc(N)c(C#N)c32)n1)[C@@H]1CCCN1C [II-13]
- GI50 (KRAS G12D Ba/F3): 37 nM
- IC50 (SAS cells): 46 nM
- GI50 (KRAS G12V Ba/F3): 10 nM
- IC50 (SK-CO-1 cells): 69 nM
- IC50 (AsPC-1 cells): 966 nM
- fraction unbound [1]: 0.2

SMILES: CO[C@@H]1C[C@@H]([C@H](C)Oc2cc(O[C@@H]3CNC3(C)C)nc(-c3noc4c3CCC[C@@]43CCCc4sc(N)c(C#N)c43)n2)N(C)C1 [II-30]
- GI50 (KRAS G12D Ba/F3): 5 nM
- IC50 (SAS cells): 267 nM
- GI50 (KRAS G12V Ba/F3): 297 nM
- IC50 (SK-CO-1 cells): 260 nM
- IC50 (AsPC-1 cells): 36 nM
- fraction unbound [1]: 0.3

SMILES: C[C@H](Oc1cc(O[C@@H]2CNC2(C)C)nc(-c2noc3c2CCC[C@@]32CCCc3sc(N)c(C#N)c32)n1)[C@@H]1C[C@@H](F)CN1C [II-31]
- GI50 (KRAS G12D Ba/F3): 3 nM
- IC50 (SAS cells): 402 nM
- GI50 (KRAS G12V Ba/F3): 230 nM
- IC50 (SK-CO-1 cells): 394 nM
- IC50 (AsPC-1 cells): 25 nM
- fraction unbound [1]: 0.31

SMILES: C[C@H](Oc1cc(Sc2ncccn2)nc(-c2onc3c2CCC[C@@]32CCCc3sc(N)c(C#N)c32)n1)[C@@H]1CCCN1C [Example I-7]
- GI50 (KRAS G12D Ba/F3): 97 nM
- IC50 (SAS cells): 221 nM
- GI50 (KRAS G12V Ba/F3): 31 nM
- IC50 (SK-CO-1 cells): 796 nM
- IC50 (AsPC-1 cells): 10300 nM
- fraction unbound [1]: 0.61

SMILES: C[C@H](Oc1cc(O[C@@H]2CNC2(C)C)nc(-c2noc3c2CCC[C@@]32CCCc3sc(N)c(C#N)c32)n1)[C@@H]1CCCN1C [II-9]
- GI50 (KRAS G12D Ba/F3): 5 nM
- IC50 (SAS cells): 179 nM
- GI50 (KRAS G12V Ba/F3): 161 nM
- IC50 (SK-CO-1 cells): 171 nM
- IC50 (AsPC-1 cells): 49 nM
- fraction unbound [1]: 0.52

SMILES: C[C@H](Oc1cc(Oc2cccnc2)nc(-c2onc3c2CCC[C@@]32CCCc3sc(N)c(C#N)c32)n1)[C@@H]1CCCN1C [Example I-2]
- GI50 (KRAS G12D Ba/F3): 6 nM
- IC50 (SAS cells): 15 nM
- GI50 (KRAS G12V Ba/F3): 2 nM
- IC50 (SK-CO-1 cells): 23 nM
- IC50 (AsPC-1 cells): 1310 nM
- fraction unbound [1]: 0.31

SMILES: C[C@H](Oc1cc(OCCO)nc(-c2noc3c2CCC[C@@]32CCCc3sc(N)c(C#N)c32)n1)[C@@H]1CCCN1C [II-6]
- GI50 (KRAS G12D Ba/F3): 16 nM
- IC50 (SAS cells): 40 nM
- GI50 (KRAS G12V Ba/F3): 7 nM
- IC50 (SK-CO-1 cells): 88 nM
- IC50 (AsPC-1 cells): 1760 nM
- fraction unbound [1]: 0.72

SMILES: C[C@H](Oc1cc(N(C)C)nc(-c2noc3c2CCC[C@@]32CCCc3sc(N)c(C#N)c32)n1)[C@@H]1CCCN1C [II-10]
- GI50 (KRAS G12D Ba/F3): 81 nM
- IC50 (SAS cells): 795 nM
- GI50 (KRAS G12V Ba/F3): 43 nM
- IC50 (SK-CO-1 cells): 1200 nM
- IC50 (AsPC-1 cells): 1940 nM
- fraction unbound [1]: 0.08
